Results taken from publication PMC9151520 (Archives of Toxicology, 2022).
Counter-ions that a name gives are not always drawn. Like-named read-outs stand apart in the source and are kept apart here.

Key:
[1] = test system: p53 signaling (p53RE-bla HCT-116 cells); test: cells; type: cell-based
[2] = test system: p53 signaling (p53RE-bla HCT-116 cells)
[3] = test system: p53 signaling (p53RE-bla HCT-116 cells); remark: listed apart in the source
[4] = test system: p53RE-bla HCT-116 cells
[5] = test system: p53 signaling (p53RE-bla HCT-116 cells); test: cells; details: Homo sapiens
[6] = HCT-116, read-out: p53 activation EC50, primary screening
[7] = HCT-116, read-out: p53 activation efficacy, primary screening
[8] = Homo sapiens, HCT-116, read-out: EC50, p53 activation, primary screening
[9] = Homo sapiens, HCT-116, read-out: Efficacy, p53 activation, cherry pick confirmation
[10] = Homo sapiens, HCT-116, read-out: Efficacy, p53 activation, primary screening
[11] = HCT-116, read-out: EC50, p53 activation, primary screening
[12] = HCT-116, read-out: Efficacy, p53 activation, cherry pick confirmation
[13] = HCT-116, read-out: Efficacy, p53 activation, primary screening
[14] = Homo sapiens, HCT-116, read-out: EC50, p53 activation, cherry pick confirmation
[15] = HCT-116, read-out: p53 activation EC50, cherry pick confirmation
[16] = HCT-116, read-out: p53 activation efficacy, cherry pick confirmation
[17] = Homo sapiens, HCT-116, read-out: p53 activation EC50, cherry pick confirmation
[18] = Homo sapiens, HCT-116, read-out: p53 activation EC50, primary screening
[19] = Homo sapiens, HCT-116, read-out: p53 activation efficacy, cherry pick confirmation
[20] = Homo sapiens, HCT-116, read-out: p53 activation efficacy, primary screening

Row | Compound | p53 activation EC50, cherry pick confirmation [1] | p53 activation EC50, primary screening [1] | p53 activation efficacy, cherry pick confirmation [1] | p53 activation efficacy, primary screening [1] | p53 activation EC50, cherry pick confirmation [2] | p53 activation efficacy, cherry pick confirmation [2] | p53 activation EC50, cherry pick confirmation [3] | p53 activation EC50, primary screening [3] | p53 activation efficacy, cherry pick confirmation [3] | p53 activation efficacy, primary screening [3] | Viability EC50, cherry pick confirmation [4] | Viability EC50, primary screening [4] | Viability efficacy, cherry pick confirmation [4] | Viability efficacy, primary screening [4] | p53 activation EC50, primary screening [2] | p53 activation efficacy, primary screening [2] | other results
1 | c1ccc2c(c1)-c1cccc3cccc-2c13 [Fluoranthene] | inactive | inactive | inactive | inactive | inactive | inactive | inactive | inactive | inactive | inactive | inactive | inactive | inactive | inactive | – | – | EC50 [5, 6]: 24.4 µM; Emax [5, 7]: 33.6%
2 | CC(O)CN(CC(C)O)CC(C)O (stereo not shown) [Triisopropanolamine] | inactive | inactive | inactive | inactive | inactive | inactive | inactive | inactive | inactive | inactive | inactive | inactive | inactive | inactive | – | – | EC50 [5, 6]: 37 µM; Emax [5, 7]: 40%
3 | CCCCOCCOP(=O)(OCCOCCCC)OCCOCCCC [Tris(2-butoxyethyl) phosphate] | inactive | inactive | inactive | inactive | inactive | inactive | inactive | inactive | inactive | inactive | inactive | inactive | inactive | inactive | – | – | EC50 [5, 6]: 35.1 µM; Emax [5, 7]: 48.7%
4 | COc1cc([C@@H]2c3cc4c(cc3[C@@H](O[C@@H]3O[C@@H]5CO[C@@H](C)O[C@H]5[C@H](O)[C@H]3O)[C@H]3COC(=O)[C@H]23)OCO4)cc(OC)c1O [etoposide, reference compound] | – | – | – | – | – | – | – | – | – | – | – | – | – | – | – | – | EC50 [1, 8]: 1.33 µM; Emax [1, 9]: 72.1%; Emax [1, 10]: 62.9%; p53 induction in the presence of microsomes compared with absence of microsomes [2]: inactivity or lower activity; EC50, p53 activation, cherry pick confirmation [3]: inactive; EC50, p53 activation, primary screening [3]: inactive; Efficacy, p53 activation, cherry pick confirmation [3]: inactive; Efficacy, p53 activation, primary screening [3]: inactive; EC50, viability, cherry pick confirmation [4]: inactive; EC50, viability, primary screening [4]: inactive; Efficacy, viability, cherry pick confirmation [4]: inactive; Efficacy, viability, primary screening [4]: inactive; EC50 [5, 11]: 0.888 µM; Emax [5, 12]: 32.9%; Emax [5, 13]: 22.1%
5 | O=c1[nH]c(=O)n([C@H]2C[C@H](O)[C@@H](CO)O2)cc1F [Floxuridine] | – | – | – | – | – | – | – | – | – | – | – | – | – | – | – | – | EC50 [1, 14]: 15.7 µM; EC50 [1, 8]: 0.643 µM; Emax [1, 9]: 59.4%; EC50, p53 activation, cherry pick confirmation [2]: inactive; Efficacy, p53 activation, cherry pick confirmation [2]: inactive; EC50, p53 activation, cherry pick confirmation [3]: inactive; EC50, p53 activation, primary screening [3]: inactive; Efficacy, p53 activation, cherry pick confirmation [3]: inactive; Efficacy, p53 activation, primary screening [3]: inactive; EC50, viability, cherry pick confirmation [4]: inactive; EC50, viability, primary screening [4]: inactive; Efficacy, viability, cherry pick confirmation [4]: inactive; Efficacy, viability, primary screening [4]: inactive; EC50 [5, 11]: 0.326 µM
6 | Nc1ccn([C@@H]2O[C@H](CO)[C@@H](O)[C@@H]2O)c(=O)n1 [Cytarabine] | – | – | – | – | – | – | – | – | – | – | – | – | – | – | – | – | EC50 [1, 14]: 0.913 µM; Emax [1, 9]: 96.4%; Emax [1, 10]: 83.8%; EC50, p53 activation, cherry pick confirmation [3]: inactive; EC50, p53 activation, primary screening [3]: inactive; Efficacy, p53 activation, cherry pick confirmation [3]: inactive; Efficacy, p53 activation, primary screening [3]: inactive; EC50, viability, cherry pick confirmation [4]: inactive; EC50, viability, primary screening [4]: inactive; Efficacy, viability, cherry pick confirmation [4]: inactive; Efficacy, viability, primary screening [4]: inactive; EC50 ([5]; HCT-116, read-out: EC50, p53 activation, cherry pick confirmation): 0.903 µM; Emax [5, 12]: 33.4%; Emax [5, 13]: 31.7%
7 | COP(=O)(OC)O/C(=C\Cl)c1cc(Cl)c(Cl)cc1Cl [Z-Tetrachlorvinphos] | inactive | inactive | inactive | inactive | – | – | inactive | – | inactive | – | inactive | inactive | inactive | inactive | – | – | EC50 [5, 15]: 31.6 µM; Emax [5, 16]: 115%
8 | CCN(C)C(=O)Oc1cccc([C@H](C)N(C)C)c1 [Rivastigmine tartrate] | inactive | inactive | inactive | inactive | – | – | inactive | – | inactive | – | inactive | inactive | inactive | inactive | – | – | EC50 [5, 15]: 8.41 µM; Emax [5, 16]: 32.8%
9 | CNC(=O)Oc1cc(C)cc(C(C)C)c1 [Promecarb] | inactive | inactive | inactive | inactive | – | – | inactive | – | inactive | – | inactive | inactive | inactive | inactive | – | – | EC50 [5, 15]: 20 µM; Emax [5, 16]: 40.2%
10 | COc1cccc2c1C(=O)c1c(O)c3c(c(O)c1C2=O)C[C@@](O)(C(=O)CO)C[C@@H]3O[C@H]1C[C@H](N)[C@H](O[C@@H]2CCCCO2)[C@H](C)O1 [Pirarubicin] | – | – | – | – | inactive | inactive | inactive | inactive | inactive | inactive | inactive | inactive | – | inactive | inactive | inactive | EC50 [1, 17]: 7.61 µM; EC50 [1, 18]: 2.19 µM; Emax [1, 19]: 287%; Emax [1, 20]: 142%
11 | O=c1n(CC2CO2)c(=O)n(CC2CO2)c(=O)n1CC1CO1 (stereo not shown) [Tris(2,3-epoxypropyl)isocyanurate] | – | – | 90.7567 | 99.0367 | inactive | inactive | inactive | inactive | inactive | inactive | inactive | inactive | inactive | inactive | inactive | inactive | EC50 ([1]; read-out: p53 activation EC50, cherry pick confirmation): 27.9 µM; EC50 ([1]; read-out: p53 activation EC50, primary screening): 23.7 µM
12 | CCC(C)(NC(=O)c1cc(Cl)c(C)c(Cl)c1)C(=O)CCl (stereo not shown) [Zoxamide] | – | – | – | – | inactive | inactive | inactive | inactive | inactive | inactive | inactive | inactive | inactive | inactive | inactive | inactive | EC50 [1, 17]: 22.3 µM; EC50 [1, 18]: 38 µM; Emax [1, 19]: 94.8%; Emax [1, 20]: 50.7%
13 | Nc1nc(Cl)nc2c1ncn2[C@@H]1O[C@H](CO)[C@@H](O)[C@@H]1F [Clofarabine] | – | – | – | – | inactive | inactive | inactive | inactive | inactive | inactive | inactive | inactive | inactive | inactive | inactive | inactive | EC50 [1, 17]: 0.335 µM; EC50 [1, 18]: 0.138 µM; Emax [1, 19]: 84.9%; Emax [1, 20]: 93.3%
